This test concerns the target T1, TcAkt (T. cruzi Akt-like kinase), PH domain (Trypanosoma cruzi, UniProt Q4D6D3).
T1 construct: gene Tc00.1047053509047.110; TcAkt-PH (aa 1–105), C-terminal 6xHis-tag
The experiment in a line: NMR 1H-15N HSQC chemical shift perturbation titration; hetNOE. It counts as binding.

T1 sequence (Q4D6D3 entry or part of it): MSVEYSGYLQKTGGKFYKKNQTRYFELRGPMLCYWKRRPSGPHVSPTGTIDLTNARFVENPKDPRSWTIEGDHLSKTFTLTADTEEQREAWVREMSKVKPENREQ

In general, Kd refers to the constant that tells how readily two partners part at equilibrium. For `O=P(O)(O)O[C@H]1[C@H](O)[C@@H](OP(=O)(O)O)[C@H](OP(=O)(O)O)[C@@H](OP(=O)(O)O)[C@H]1O` [Ins(1,3,4,5)P4], the Kd was found to be 40 ± 14 µM.

Values taken from PMC11063076, “Structural investigation of Trypanosoma cruzi Akt-like kinase as drug target against Chagas disease” (Scientific Reports, 2024).
